From US6407058B1, “Modifying the permeability of physiological barriers” (Eisai Co., Limited, priority 1996, dated 2002)

How the values were obtained:
Type in all cases: cell-based
p100/p120 [1] = assay: [32P]orthophosphate labelling and immunoprecipitation of p100/p120, MDCK I cells
Procedure: PDB induces dephosphorylation of p100 and p120. We investigated the possibility that the altered pattern of migration during electrophoresis of p100 and p120 following treatment with PDB is due to a change in the phosphorylation state of these proteins. MDCK I cells were metabolically labelled with [^32P]orthophosphate, treated with or without 200 nM PDB, and the p100 and p120 isolated by immunoprecipitation with antibodies recognising p100 and p120. This immunoprecipitation was carried out under buffer conditions which removed any associated proteins from p100 and p120. Protein was separated by electrophoresis, transferred to nitrocellulose filters, and exposed to film (Example 6A). The greater the amount of radioactive phosphate incorporated into the protein, the greater the signal on the film. […] To normalise for slight differences in protein loading, the same filters were then probed with p100/p120 antibody, and the level of p100/p120 protein determined by densitometry. Thus, the amount of phosphate per unit protein could be calculated. […]
MDCK I cells grown to confluence on 24 mm filters were incubated overnight in phosphate-free MEM, containing 0.5% serum (dialysed against 0.9% NaCl and 10 mM Hepes (pH 7.5)) and 100 μCi/ml [^32P]orthophosphate (Amersham). […] Filters were then probed with p120 antibodies, and the resulting ECL exposure scanned in the same way, to quantify protein loading.

p100/p120 [2] = assay: phosphoamino acid (PAA) analysis of p100/p120, MDCK I cells; conditions: PDB treatment
Procedure: Following phosphate labelling, immunoprecipitation and visualisation of p100/p120 as in panel A above, the levels of p100/p120 protein were determined by immunoblotting. Thus it could be ascertained that approximately equal amounts of protein from PDB-treated and untreated cells were used for the PAA analysis. The p100/p120 bands were excised, and the proteins hydrolysed into their constituent amino acids by boiling in 5.7 M HCl. PAAs were then separated by two-dimensional electrophoresis, and detected by autoradiography. p100/p120 from control cells contains mainly phosphoserine (S), some phosphothreonine (T) and no detectable phosphotyrosine (Y). Following PDB treatment, both phosphoserine and phosphothreonine levels are reduced.
For phosphoamino acid (PAA) analysis, MDCK I cells were labelled as above with [^32P]orthophosphate, and the p100 and p120 extracted from PDB-treated or untreated cells by immunoprecipitation (as above). Following transfer to Immobilon P, and immunoblotting to assess recovery of protein, the area of the filter containing p100 and p120 was excised. The proteins were hydrolysed at 110° C. for one hour in 5.7 M HCl to release PAAs. Following lyophilisation, two dimensional PAA separation and detection was carried out as previously described (Boyle et al., 1991).

paxillin = paxillin electrophoretic mobility by immunoblotting, MDCK I cells; conditions: 200 nM PDB, 30 minutes
Procedure: The migration of the cellular proteins p100 and p120 during electrophoresis is increased following PDB-treatment of MDCK I cells. PDB (phorbol-12,13-dibutyrate) is a pharmacological activator of protein kinase C. MDCK I cells are a kidney derived epithelial cell line, with particularly well developed junctional complexes. Cells treated for 30 minutes with either 200 nM PDB (+) or vehicle (−) were then lysed into Laemmli sample buffer, and separated by electrophoresis using 6% acrylamide gels. Proteins were transferred to nitrocellulose and probed with antibodies to p100/p120, and then reprobed with E-cadherin and paxillin antibodies.
Cell extracts or immunoprecipitates in SDS sample buffer were resolved by SDS-PAGE. The slab gels were then equilibrated in buffer comprising; 48 mM Tris, 39 mM glycine, 20% methanol and 0.03% SDS. Proteins were transferred to nitrocellulose filters (Hybond ECL; Amersham), which were Ponceau S stained and then blocked for 2 hours at 37° C. with 1% BSA in PBS containing 0.05% Tween-20. Filters were then probed with p120 antibody, at a dilution of 1:2500. […] The filters were then extensively washed in PBS/0.5% Tween-20, and immunoreactive bands were detected by enhanced chemiluminescence (Amersham) following the manufacturers instructions.

p100/p120 [3] = assay: p100/p120 electrophoretic mobility, bovine aortic endothelial cells (BAECs); conditions: 200 nM PDB, 30 minutes
Procedure: The mobility of p100 and p120 during electrophoresis is also altered by PDB-treatment in endothelial cells. The p100/p120 proteins from human umbilical vein endothelial cells (HUVECs), bovine aortic endothelial cells (BAECs) and primary pig brain endothelial cells (PBECs) were all affected by PDB-treatment. Cells were treated with or without 200 nM PDB for 30 minutes, lysed into Laemmli sample buffer, separated by electrophoresis and analysed by immunoblotting with antibodies recognising p100 and p120. […] Thus the effect of PKC activation (via PDB) on p100/p120 mobility is a widespread phenomenon.
Whole cell lysates were prepared by rapidly replacing the culture medium in 6.5 mm with hot Laemmli sample buffer, followed by heating at 100° C. for 5 minutes. Immunoprecipitations were carried out at 4° C. Confluent monolayers of cells were washed rapidly with ice cold PBS (containing 0.9 mM CaCl2 and 0.5 mM MgCl2) before addition of 0.5 ml of the appropriate buffer. The filters were then gently scraped, and the lysate was removed and centrifuged at 14000× g. […]
Cell extracts or immunoprecipitates in SDS sample buffer were resolved by SDS-PAGE. […] The filters were then extensively washed in PBS/0.5% Tween-20, and immunoreactive bands were detected by enhanced chemiluminescence (Amersham) following the manufacturers instructions.

CCCC(=O)O[C@@H]1[C@@H](C)[C@@]2(O)[C@@H](C=C(CO)C[C@]3(O)C(=O)C(C)=C[C@@H]23)[C@@H]2C(C)(C)[C@]12OC(=O)CCC [PDB, Phorbol-12,13-dibutyrate]
phosphate content of p100/p120, of that in untreated cells (mean±s.d.) (p100/p120 [1]; 200 nM PDB 30 minutes, seven independent sets of experiments): 58±11% | phosphate in p100/p120 lost (p100/p120 [1]; 200 nM PDB, single experiment (FIG. 7B), normalised for protein): approximately 40% | phosphoserine and phosphothreonine levels of p100/p120 (p100/p120 [2]): reduced | reduction in phosphate signal (PAA densitometry) (p100/p120 [2]): approximately 40% | effect on paxillin migration (phosphorylation) (paxillin): upward band shift | mobility of p100 and p120 (p100/p120 [3]): the mobility of p100 and p120 increased
